These are literature values, as cited in patent US8158161B2, “Methods and pharmaceutical compositions useful for treating psoriasis” (S.U.L.V.E. Ltd., priority 2005, dated 2012).

This data set deals with K562 cells. The conditions noted are these: Leoni 1997.

SMILES strings stand for the structures.

Regarding `S=C=NCc1ccccc1` [Benzyl-isothiocyanate], the “rank among isothiocyanates tested as inhibitors of leukemic cell growth” value was “most potent inhibitors”.
For the compound `C=CCN=C=S` [2-Propenyl-isothiocyanate], the “rank among isothiocyanates tested as inhibitors of leukemic cell growth” value was “most potent inhibitors”.
